Test results as given in publication PMC4773758, “Small Molecule Inhibited Parathyroid Hormone Mediated cAMP Response by N–Terminal Peptide Binding” (Scientific Reports, 2016).

Legend:
[1] = Water solubility; format: physicochemical; conditions: in the absence of the metal
Excerpt: As GPCRs are involved in many diseases, they are targets for approximately 40% of all human modern medicinal drugs. However, these drugs target only a small fraction (about 10%) of known GPCRs[37]. Within the context of receptors including GPCRs, typically available drug molecules for pharmacological applications directly target the receptors. However, literature is limited with regards to molecules which bind to the agonist to modify its receptor activating function. A potential class of molecules for this purpose could be organic/coordination/mixed–ligand complexes. In mixed–ligand complexes one metal ion can replace another metal ion bearing the original skeletal system. A metal replacement can lead to suppressed or negligible biological responses. […] In principle, Zn(II) is less toxic than Cu(II) and it is redox silent therefore, this metal was chosen in exchange of Cu(II).

[2] = set-up: method as in PMID 21709916; conditions: cited from earlier work
[3] = system: cancer cells; set-up: method as in PMID 21709916; conditions: broad range of cancer cells; cited from earlier work
[4] = system: PTH1R in HEK 293 cells; assay: cAMP assay, compound pre-incubated with cells followed by PTH(1–84); format: cell-based, Human; conditions: compound pre-incubated with the cells, then PTH(1–84)
Description: The cAMP generation was also analyzed to see the effect of the Zn complex on the receptor itself. Here, the Zn complex was pre-incubated with the cells followed by addition of PTH(1–84). […] In another control experiment cAMP generation was also studied by incubating the 9-anthracenemethanol with the peptide (Figure S9) or directly with the cells (grey bars in Figure S7). […] Additionally, inhibition of cAMP response or cell toxicity was also not observed up to 100 μM of Zn–perchlorate (Figure S10).
(§1) HEK 293 cells stably expressing hPTH1R were used for the cAMP accumulation assay following the previously reported procedure. The reaction was carried out at 37 °C and fluorescence measurements were taken using a VICTOR X4 2030 plate reader (PerkinElmer Life and Analytical Sciences). A fixed amount of 0.01 μM peptide hormones and 4 × 10^3 cells per well were used to monitor the cAMP response. The Zn complex or 9-anthracenemethanol was diluted form 0.1 μM to 100 μM and incubated for 15 minutes with the peptide hormone before addition of HEK 293 cells. […] The maximum cAMP response were calculated as a percentage of the maximal response of PTH(1–34) or PTH(1–84). The effect of Zn complex or 9-anthracenemethanol on receptor was evaluated by incubating these with the cells for 15 minutes followed by washing with buffer. […]

[5] = target: T1, PTH(1–34) (Homo sapiens, UniProt P01270); assay: Fluorescence quenching titration with PTH(1–34); format: binding
T1 construct: Human PTH(1–34) and PTH(1–84) were purified as previously reported; SUMO (N, cleaved yes); His-tag (C); made in house; host or cells: E. coli BL21 codon+
T1 sequence (P01270 32-65 limits assumed): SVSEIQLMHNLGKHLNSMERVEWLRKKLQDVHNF
Description: (§2) The natural form of parathyroid hormone comprises 84 residues, however, PTH(1–34) is sufficient for receptor activation. PTH contains one tryptophan residue at position 23. Thus it can be used as a highly sensitive fluorescent probe for the analysis of ligand binding by fluorescence spectroscopy. PTH is composed of structured sections mainly from positions 1–37, whereas the C–terminal part is largely unstructured. […] In order to establish the binding a titration experiment was carried out where the PTH(1–34) concentration was kept constant and the concentration of the Zn complex was varied.
(§3) The fluorescence quenching behavior was analyzed according to the equation given in the experimental section. […] In order to evaluate the interaction at the C–terminal part of the PTH and its role in binding, full length PTH(1–84) was taken and its binding was established.
(§4) Fluorescence titrations were carried out on a JASCO FP6500. The samples were excited at 280 nm wavelength and the emission spectra were recorded in the range between 290 nm to 450 nm. Experiments were carried out in 10 mM BisTris, 300 mM Na2SO4, 0.02% NaN3, pH 7.2 using a 1 cm path length quartz cell. The concentration of PTH(1–34), PTH(1–84) and nECD-PTH1R used in the titration experiments were 7.4 μM, 8.1 μM and 5 μM, respectively. In a typical titration experiment, 4 μM of Zn complex or 9-anthracenemethanol was added and spectra were recorded after each addition. Zn complex or 9-anthracenemethanol in buffer was used as blank titration and these spectral traces were subtracted from the main titration. The Zn complex or 9-anthracenemethanol was dissolved in dimethyl sulfoxide and further diluted for experiments. The final concentration of DMSO was <1% in any experiment.
(§5) Fluorescence data were analyzed according to the following equation:
(§6) with P = (P0 / (V0 + L))V0 and L1 = (L0 / (V0 + L))L and Q – fluorescence intensity, P – protein concentration, L – ligand concentration, V – volume, n – binding sites and 0 – indicates start point.

[6] = system: PTH(1–84) induced cAMP in HEK 293 cells expressing hPTH1R; assay: cAMP accumulation assay, compound pre-incubated with PTH(1–84); format: cell-based, Human; conditions: PTH(1–84) 0.01 μM, 15 min pre-incubation with peptide
Excerpt: NMR spectroscopy identified that the Zn complex interacts with the N–terminal part of the peptide hormone. The binding region from residues 1–37 of PTH(84) is important for recognition, interaction with the extracellular loops and trans–membrane helices of the receptor and bringing about activation of the later. There are two principal signal transduction pathways involving the G protein–coupled receptors: the cAMP signal pathway and the phosphatidylinositol signal pathway. Parathyroid hormone is involved in the cAMP pathway for its biological regulation. Because binding of the Zn complex was at the N–terminal part of PTH, it is interesting to investigate the cAMP response towards its receptor in the presence of the Zn complex. Therefore PTH(1–34) and PTH(1–84) induced cAMP accumulation was measured in stable HEK 293 cell lines expressing recombinant PTH1R[33]. A cAMP generation assay was carried out in a Zn complex concentration dependent manner, keeping the cells and peptide hormone concentrations constant. PTH response without Zn complex was considered as 100% cAMP response. The peptide hormones were exposed to Zn complex for 15 minutes to allow for complex formation and subsequently cAMP generation was studied.
HEK 293 cells stably expressing hPTH1R were used for the cAMP accumulation assay following the previously reported procedure. The reaction was carried out at 37 °C and fluorescence measurements were taken using a VICTOR X4 2030 plate reader (PerkinElmer Life and Analytical Sciences). A fixed amount of 0.01 μM peptide hormones and 4 × 10^3 cells per well were used to monitor the cAMP response. The Zn complex or 9-anthracenemethanol was diluted form 0.1 μM to 100 μM and incubated for 15 minutes with the peptide hormone before addition of HEK 293 cells. All experiments were performed in triplicate and repeated independently three times. The maximum cAMP response were calculated as a percentage of the maximal response of PTH(1–34) or PTH(1–84). The effect of Zn complex or 9-anthracenemethanol on receptor was evaluated by incubating these with the cells for 15 minutes followed by washing with buffer. These treated cells were added to the reaction mixture containing untreated PTH(1–84) as described above.

[7] = target: T1, PTH(1–34); assay: ITC with PTH(1–34); format: binding; conditions: 25 °C
Description: (§7) ITC is a well suited method to evaluate protein-ligand interaction. The interaction of the Zn complex with PTH(1–34) and PTH(1–84) was evaluated by ITC at 25 °C. Zn complex binding was exothermic in nature for both the peptides (Fig. 3b and Figure S4). Data fitting gave n values of 2.28 ± 0.13 and 1.93 ± 0.04 for PTH(1–34) and PTH(1–84), respectively. […] The enthalpic gain counterbalances the unfavorable loss in entropy of the system upon complex binding.
(§8) The calorimetric titrations were performed at 25 °C with a MicroCal VPITC isothermal titration calorimeter. Small aliquots (7 μl) of the Zn complex were added to a solution of the respective peptide in the calorimeter cell. Successive additions were separated by a 300 second interval to allow the resulting peak from peptide Zn complex interaction to return to the baseline. All of the studies were carried out in 10 mM BisTris, 300 mM Na2SO4, pH 7.2.

[8] = target: T2, PTH(1–84) (Homo sapiens, UniProt P01270); assay: Fluorescence quenching titration with PTH(1–84); format: binding
T2 construct: SUMO (N, cleaved yes); His-tag (C); made in house; host or cells: E. coli BL21 codon+
T2 sequence (P01270 32-115): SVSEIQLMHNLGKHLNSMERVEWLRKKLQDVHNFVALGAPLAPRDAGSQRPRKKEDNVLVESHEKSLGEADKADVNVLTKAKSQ
Description: as §2, §3, §4, §5, §6

[9] = system: PTH(1–34) induced cAMP in HEK 293 cells expressing hPTH1R; assay: cAMP accumulation assay, compound pre-incubated with PTH(1–34); format: cell-based, Human; conditions: PTH(1–34) 0.01 μM, 15 min pre-incubation with peptide
Excerpt: NMR spectroscopy identified that the Zn complex interacts with the N–terminal part of the peptide hormone. The binding region from residues 1–37 of PTH(84) is important for recognition, interaction with the extracellular loops and trans–membrane helices of the receptor and bringing about activation of the later. There are two principal signal transduction pathways involving the G protein–coupled receptors: the cAMP signal pathway and the phosphatidylinositol signal pathway. Parathyroid hormone is involved in the cAMP pathway for its biological regulation. […] Therefore PTH(1–34) and PTH(1–84) induced cAMP accumulation was measured in stable HEK 293 cell lines expressing recombinant PTH1R[33]. […]
as §1, with “Sciences).” for “Sciences). A fixed amount of 0.01 μM peptide hormones and 4 × 10^3 cells per well were used to monitor the cAMP response. The Zn complex or 9-anthracenemethanol was diluted form 0.1 μM to 100 μM and incubated for 15 minutes with the peptide hormone before addition of HEK 293 cells.”

[10] = target: T2, PTH(1–84); assay: ITC with PTH(1–84); format: binding; conditions: 25 °C
Description: as §7, §8

[11] = target: T2, PTH(1–84); assay: NMR 1H–15N HSQC titration with 15N–PTH(1–84); format: binding; conditions: pH 5.3, 25 °C
Excerpt: Preferential binding at residue-level resolution was further investigated by choosing full length ^15N PTH(1–84) to see whether or not the C–terminal region is involved in the Zn complex interaction. […] These NMR spectra indicate that the N–terminal domain of PTH (1–84) binds to the Zn complex whereas the C–terminus part remains solvent exposed and flexible enough to result in observable resonances. […] Histidine 63 is the only exception in the C–terminal part of PTH(1–84) sensing complex formation.
The spectra were recorded at the concentration of 50 μM of peptide hormones. Subsequently, titration was carried out with the addition of 0.5 μl of 10 mM Zn complex until there was no further change in NMR intensity observed. The spectrum corresponding to the 1:4 complex formations was used for the analysis. For the 9-anthracenemethanol titration experiment 20 μM of PTH was used. A titration was carried out and the 1:4 complex of PTH:9-anthracenemethanol was analyzed in detail. The spectra were corrected for the dilution factor. The previously determined NMR assignments of PTH resonances were used[24][63][64]. The spectra were recorded in the 10 mM BisTris, 300 mM Na2SO4, 0.02% NaN3, pH 5.3, with a Bruker 800 MHz Avance III spectrometer equipped with a CP–TCI cryoprobe at 25 °C. Spectra were processed using the programs NMRPipe and NMR Draw.

[12] = read-out: concentration at which 50% reduced activity (cAMP response) was observed

c1ccc(-c2cc(-c3c4ccccc4cc4ccccc34)cc(-c3ccccn3)n2)nc1 [anthracenyl terpyridine]
water solubility [1]: water insoluble

Cu(II) complex of anthracenyl terpyridine [reference compound]
nuclease activity [2]: showed nuclease and antiprolifirative activity
antiproliferative activity [3]: showed nuclease and antiprolifirative activity

Zn(II) complex of anthracenyl terpyridine [Zn complex]
suppression of cAMP generation [4]: did not show a significant suppression
reduced fluorescence intensity at the end of the titration ([5]; 76 μM of Zn complex, PTH(1–34)): ~ 86%
CF50 (concentration required for 50% quenching of fluorescence intensity) ([5]; PTH(1–34)): 21.46 ± 0.5 µM
stoichiometry (numbers of binding sites with equal affinities) ([5]; fluorescence quenching, PTH(1–34)): 1.9
Kd ([5]; fluorescence quenching, PTH(1–34) 7.4 μM, pH 7.2): 27 ± 1.8 µM
concentration for complete suppression of the cAMP response [6]: ~ 20 μM
IC50 [6, 12]: 2 µM
Kd [7]: 55.06 ± 0.06 µM
n (ITC) [7]: 2.28 ± 0.13
∆H (ITC) [7]: -5.9 ± 0.1 kcal/mol
∆S (ITC) [7]: −5.37 cal mol^−1K^−1
reduced fluorescence intensity at the end of the titration ([8]; 76 μM of Zn complex, PTH(1–84)): ~ 75%
CF50 (concentration required for 50% quenching of fluorescence intensity) ([8]; PTH(1–84)): 31.8 ± 0.8 µM
stoichiometry ([8]; fluorescence quenching, PTH(1–84)): 2.0
Kd ([8]; fluorescence quenching, PTH(1–84) 8.1 μM, pH 7.2): 34 ± 1.7 µM
nuclease activity [2]: did not show nuclease or antiprolifirative activities
concentration for complete suppression of the cAMP response [9]: ~ 20 μM
IC50 [9, 12]: 2 µM
antiproliferative activity [3]: did not show nuclease or antiprolifirative activities
Kd [10]: 54.1 ± 0.08 µM
n (ITC) [10]: 1.93 ± 0.04
∆H (ITC) [10]: -11.25 ± 0.3 kcal/mol
∆S (ITC) [10]: −7.15 cal mol^−1K^−1
change in NMR cross peaks / intensity of PTH(1–84) [11]: binds to N–terminal residues
